Assay results as given in ChEMBL document CHEMBL4765232 (J Med Chem, 2016).
Calls of active or inactive are those of the source. The calls are words filed in the database; no cut-off is given here.

Experiments:
Cytochrome P450 2C9 = Cytochrome P450 2C9 (Homo sapiens, UniProt P11712); experiment: Time dependent inhibition of CYP2C9 (unknown origin); format: ADME
[1] = Protein binding in human plasma assessed as bound fraction; format: ADME, cell-free; settings: read-out: PPB (converted)
[2] = Unbound AUC in Balb/c mouse at 100 mg/kg, po formulated in 0.5 % methyl cellulose maintained at pH 3 to 4; format: ADME, organism-based; settings: in vivo, pH 3, 100 mg/kg
[3] = Protein binding in rat plasma assessed as bound fraction; format: ADME, cell-free; settings: read-out: PPB (converted)
[4] = Clearance in Beagle dog at 1 mg/kg, iv relative to liver blood flow; format: ADME, organism-based, Canis lupus familiaris; settings: in vivo
[5] = Unbound clearance in Beagle dog at 1 mg/kg, iv; format: ADME, organism-based, Canis lupus familiaris; settings: in vivo
Cytochrome P450 3A4 = Cytochrome P450 3A4 (Homo sapiens, UniProt P08684); experiment: Time dependent inhibition of CYP3A4 (unknown origin); format: ADME
[6] = Fraction unbound in mouse plasma; format: ADME, cell-free
CYP2C9 = CYP2C9 (Homo sapiens, UniProt P11712); experiment: Inhibition of CYP2C9 (unknown origin) at 10 uM relative to control; format: ADME
KARPAS-422 [7] = experiment: Antitumor activity against human KARPAS-422 cells harboring EZH2 Y641N mutant xenografted in CB17 SCID mouse assessed as tumor regression at 160 mg/kg, po BID and measured within 2 weeks by caliper method; format: functional, organism-based
[8] = Drug concentration in plasma of CB17 SCID mouse xenografted with human KARPAS-422 cells at 160 mg/kg, po BID administered for 17 days and measured up to 12 hrs post last dose by LC-MS analysis; format: ADME, organism-based; settings: time 17 day
[9] = Clearance in Sprague-Dawley rat at 1 mg/kg, iv; format: ADME, organism-based; settings: in vivo
[10] = Intrinsic clearance in dog liver microsomes assessed per mg protein; format: ADME, Canis lupus familiaris, Microsome
[11] = Unbound clearance in Balb/c mouse at 1 mg/kg, iv formulated with 5:60:35 DMA/PEG400/20% SBECD; format: ADME, organism-based; settings: in vivo
CYP2C8 = target: T1, CYP2C8 (Homo sapiens, UniProt P10632); experiment: Inhibition of CYP2C8 (unknown origin) at 10 uM relative to control; format: ADME
T1 sequence (P10632 whole entry): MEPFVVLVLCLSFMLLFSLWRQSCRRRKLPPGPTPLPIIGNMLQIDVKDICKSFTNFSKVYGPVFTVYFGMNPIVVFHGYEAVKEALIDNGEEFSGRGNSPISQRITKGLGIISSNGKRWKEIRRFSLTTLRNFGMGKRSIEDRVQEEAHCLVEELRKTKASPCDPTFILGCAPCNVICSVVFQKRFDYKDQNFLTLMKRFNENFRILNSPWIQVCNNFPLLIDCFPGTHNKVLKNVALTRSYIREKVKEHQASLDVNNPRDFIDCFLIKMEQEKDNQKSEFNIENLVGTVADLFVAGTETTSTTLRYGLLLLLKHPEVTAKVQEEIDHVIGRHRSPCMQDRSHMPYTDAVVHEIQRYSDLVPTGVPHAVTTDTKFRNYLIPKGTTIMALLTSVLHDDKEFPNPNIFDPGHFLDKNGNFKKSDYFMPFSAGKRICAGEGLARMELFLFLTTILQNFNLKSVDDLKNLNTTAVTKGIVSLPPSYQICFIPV

[12] = Toxicity in Sprague-Dawley rat at 100 to 600 mg/kg, po QD administered via gavage as single dose for 28 days; format: organism-based; settings: in vivo, 672 h, dose 100-600 mg/kg, time 28 day
[13] = Intrinsic clearance in mouse liver microsomes assessed per mg protein; format: ADME, Microsome
[14] = Clearance in Beagle dog at 1 mg/kg, iv; format: ADME, organism-based, Canis lupus familiaris; settings: in vivo
[15] = Cmax in Beagle dog at 5 mg/kg, po; format: ADME, organism-based, Canis lupus familiaris; set-up: route oral, dose 5 mg/kg; settings: in vivo
[16] = Toxicity in Beagle dog at 50 to 500 mg/kg, po BID administered via gavage […] for 28 days; format: organism-based, Canis lupus familiaris; settings: in vivo, 672 h, dose 50-500 mg/kg, time 28 day
[17] = Drug concentration in tumor of CB17 SCID mouse xenografted with human KARPAS-422 cells at 160 mg/kg, po BID administered for 17 days and measured up to 12 hrs post last dose by LC-MS analysis; format: ADME, organism-based, Neoplasm; settings: time 17 day, read-out: Ct
[18] = AUC (0 to infinity) in Balb/c mouse at 100 mg/kg, po formulated in 0.5 % methyl cellulose maintained at pH 3 to 4; format: ADME, organism-based; set-up: time infinity, route oral, dose 100 mg/kg; settings: in vivo, pH 3, 100 mg/kg
[19] = Tmax in Beagle dog at 5 mg/kg, po; format: ADME, organism-based, Canis lupus familiaris; settings: in vivo
[20] = Oral bioavailability in Balb/c mouse at 100 mg/kg formulated in 0.5 % methyl cellulose maintained at pH 3 to 4; format: ADME, organism-based; settings: in vivo, pH 3, 100 mg/kg
[21] = Cmax in Sprague-Dawley rat at 25 mg/kg, po; format: ADME, organism-based; set-up: route oral, dose 25 mg/kg; settings: in vivo
[22] = Protein binding in dog plasma assessed as bound fraction; format: ADME, cell-free, Canis lupus familiaris; settings: read-out: PPB (converted)
Cytochrome P450 1A2 = target: T2, Cytochrome P450 1A2 (Homo sapiens, UniProt P05177); experiment: Time dependent inhibition of CYP1A2 (unknown origin); format: ADME
T2 sequence (P05177 whole entry): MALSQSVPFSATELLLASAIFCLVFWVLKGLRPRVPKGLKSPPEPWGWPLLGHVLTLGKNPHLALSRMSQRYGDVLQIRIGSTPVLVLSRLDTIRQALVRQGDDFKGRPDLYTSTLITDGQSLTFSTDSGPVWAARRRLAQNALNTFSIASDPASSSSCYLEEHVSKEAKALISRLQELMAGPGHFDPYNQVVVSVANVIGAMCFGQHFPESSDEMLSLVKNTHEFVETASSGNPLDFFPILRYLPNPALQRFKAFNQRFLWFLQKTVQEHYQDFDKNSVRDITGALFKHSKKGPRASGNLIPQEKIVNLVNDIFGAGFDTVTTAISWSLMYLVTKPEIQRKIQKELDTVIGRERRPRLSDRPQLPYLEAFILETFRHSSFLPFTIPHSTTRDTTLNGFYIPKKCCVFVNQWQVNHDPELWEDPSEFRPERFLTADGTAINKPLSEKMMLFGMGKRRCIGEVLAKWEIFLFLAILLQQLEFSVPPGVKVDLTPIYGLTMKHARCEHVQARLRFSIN

[23] = Clearance in Balb/c mouse at 1 mg/kg, iv formulated with 5:60:35 DMA/PEG400/20% SBECD; format: ADME, organism-based; settings: in vivo
[24] = Oral bioavailability in Sprague-Dawley rat at 25 mg/kg; format: ADME, organism-based; settings: in vivo
[25] = AUC (0 to infinity) in Sprague-Dawley rat at 25 mg/kg, po; format: ADME, organism-based; set-up: route oral, time infinity, dose 25 mg/kg; settings: in vivo
[26] = Fraction unbound in Beagle dog plasma; format: ADME, cell-free, Canis lupus familiaris
[27] = Oral bioavailability in Beagle dog at 5 mg/kg; format: ADME, organism-based, Canis lupus familiaris; settings: in vivo
KARPAS-422 [28] = experiment: Antitumor activity against human KARPAS-422 cells harboring EZH2 Y641N mutant xenografted in CB17 SCID mouse assessed as tumor growth inhibition at 160 mg/kg, po BID administered for 25 days and measured post-treatment by caliper method relative to control; format: functional; settings: KARPAS-422, po, 600 h, time 25 day, read-out: TGI
CYP2D6 = CYP2D6 (Homo sapiens, UniProt P10635); experiment: Inhibition of CYP2D6 (unknown origin) at 10 uM relative to control; format: ADME
[29] = Unbound AUC in Beagle dog at 5 mg/kg, po; format: ADME, organism-based, Canis lupus familiaris; settings: in vivo

Chain of CYP2C9 (P11712 whole entry): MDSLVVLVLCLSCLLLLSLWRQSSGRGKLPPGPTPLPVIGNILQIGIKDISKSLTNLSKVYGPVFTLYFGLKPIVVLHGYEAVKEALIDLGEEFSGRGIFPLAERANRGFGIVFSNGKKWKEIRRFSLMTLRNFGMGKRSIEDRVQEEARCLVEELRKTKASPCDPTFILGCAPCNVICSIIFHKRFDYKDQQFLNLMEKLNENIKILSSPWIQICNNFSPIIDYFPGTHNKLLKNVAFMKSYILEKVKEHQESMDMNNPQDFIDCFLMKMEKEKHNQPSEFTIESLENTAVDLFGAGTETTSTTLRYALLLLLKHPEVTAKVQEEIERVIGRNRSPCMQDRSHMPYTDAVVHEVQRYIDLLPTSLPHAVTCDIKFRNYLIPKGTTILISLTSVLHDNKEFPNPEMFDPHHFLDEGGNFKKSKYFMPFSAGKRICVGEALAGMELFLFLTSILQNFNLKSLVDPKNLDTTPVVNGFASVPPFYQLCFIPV
Chain of Cytochrome P450 2C9 (P11712 whole entry): as above
Chain of Cytochrome P450 3A4 (P08684 whole entry): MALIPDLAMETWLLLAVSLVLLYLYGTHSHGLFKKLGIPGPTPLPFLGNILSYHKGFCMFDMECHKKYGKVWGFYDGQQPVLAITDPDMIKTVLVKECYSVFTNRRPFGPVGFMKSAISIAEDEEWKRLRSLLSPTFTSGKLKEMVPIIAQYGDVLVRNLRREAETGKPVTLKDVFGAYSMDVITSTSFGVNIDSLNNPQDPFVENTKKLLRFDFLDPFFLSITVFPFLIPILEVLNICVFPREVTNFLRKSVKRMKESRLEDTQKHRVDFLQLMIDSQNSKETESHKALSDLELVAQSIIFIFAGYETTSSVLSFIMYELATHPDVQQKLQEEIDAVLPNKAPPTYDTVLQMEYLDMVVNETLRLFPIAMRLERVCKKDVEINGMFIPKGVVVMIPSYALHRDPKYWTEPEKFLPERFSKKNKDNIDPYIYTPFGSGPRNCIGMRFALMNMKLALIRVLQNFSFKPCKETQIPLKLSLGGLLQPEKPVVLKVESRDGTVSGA
Chain of CYP2D6 (P10635 whole entry): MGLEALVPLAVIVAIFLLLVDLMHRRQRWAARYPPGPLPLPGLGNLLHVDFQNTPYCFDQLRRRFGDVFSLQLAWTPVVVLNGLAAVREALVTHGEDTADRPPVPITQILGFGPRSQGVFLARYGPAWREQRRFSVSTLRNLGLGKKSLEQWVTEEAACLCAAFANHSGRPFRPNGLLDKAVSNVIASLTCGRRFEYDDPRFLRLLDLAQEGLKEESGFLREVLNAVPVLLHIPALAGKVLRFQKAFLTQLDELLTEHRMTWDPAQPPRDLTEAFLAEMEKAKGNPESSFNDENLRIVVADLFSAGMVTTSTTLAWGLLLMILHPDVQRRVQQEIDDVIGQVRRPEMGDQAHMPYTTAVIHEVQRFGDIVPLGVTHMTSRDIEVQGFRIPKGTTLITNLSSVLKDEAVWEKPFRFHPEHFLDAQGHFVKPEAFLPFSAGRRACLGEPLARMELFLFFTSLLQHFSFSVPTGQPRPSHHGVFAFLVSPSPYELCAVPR

SMILES: COc1cc(C)[nH]c(=O)c1CNC(=O)c1c(C)n([C@H](C)C2CCN(CC(F)(F)F)CC2)c2ccccc12 [CPI-1205]
- TDI (Cytochrome P450 2C9): Not Active
- fraction unbound [1]: 0.072
- fAUC [2]: 1.87 µM·h
- fraction unbound [3]: 0.101
- CL [4]: 76%
- CL free [5]: 14.5 L/h/kg
- TDI (Cytochrome P450 3A4): Not Active
- Fu [6]: 0.021%
- inhibition at 10 µM (CYP2C9): 11.1%
- Activity (KARPAS-422 [7]): Active
- concentration at 408 h [8]: 11.4 µg/mL
- clearance [9]: 3.19 L/h/kg
- CLH [10]: 73.9 µL/min
- CL free [11]: 102.9 L/h/kg
- inhibition at 10 µM (CYP2C8): 41%
- Activity [12]: Non-Toxic
- CLH [13]: 159 µL/min
- clearance [14]: 1.41 L/h/kg
- Cmax [15]: 1.24 µM
- Activity [16]: Non-Toxic
- concentration at 408 h [17]: 5290 ng/g
- AUC [18]: 88.88 µM·h
- Tmax [19]: 1.67 h
- F [20]: 100%
- Cmax [21]: 5.88 µM
- fraction unbound [22]: 0.097
- TDI (Cytochrome P450 1A2): Not Active
- clearance [23]: 2.16 L/h/kg
- F [24]: 44.6%
- AUC(0-inf) [25]: 7.06 µM·h
- Fu [26]: 0.021%
- F [27]: 46.2%
- inhibition in vivo at 160 mg/kg (KARPAS-422 [28]): > 97%
- inhibition at 10 µM (CYP2D6): 9.5%
- fAUC [29]: 0.309 µM·h
